“And” between values parts separate entries of the source, which are not always exact repeats. Equal entries are not always repeated. Inconclusive results and toxic doses are left out.
Tested on: P388 leukemia ip, CD2F1 mice, survival T/C
Assay: NCI In Vivo Anticancer Drug Screen. Data for tumor model P388 Leukemia (intraperitoneal) in CD2F1 (CDF1) mice
Conditions: endpoint: median survival time, higher = longer survival
How it was run: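 Mice carrying the transplanted tumor received test compound or vehicle. Survival was recorded in each group, and the value is the treated-group measurement divided by that of the vehicle-treated control group.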

[1] = dose: 50.0 mg/kg/injection, schedule: Q01DX009 (ip), vehicle: saline with Tween-80
[2] = dose: 100.0 mg/kg/injection, schedule: Q01DX009 (ip), vehicle: saline with Tween-80
[3] = dose: 25.0 mg/kg/injection, schedule: Q01DX009 (ip), vehicle: saline with Tween-80
[4] = dose: 60.0 mg/kg/injection, schedule: Q01DX005 (ip), vehicle: saline with Tween-80
[5] = dose: 50.0 mg/kg/injection, schedule: Q01DX009 (ip), vehicle: Klucel (hydroxypropylcellulose) (HPC)
[6] = dose: 100.0 mg/kg/injection, schedule: Q01DX009 (ip), vehicle: Klucel (hydroxypropylcellulose) (HPC)
[7] = dose: 200.0 mg/kg/injection, schedule: Q01DX009 (ip), vehicle: Klucel (hydroxypropylcellulose) (HPC)
[8] = dose: 120.0 mg/kg/injection, schedule: Q01DX005 (ip), vehicle: saline with Tween-80
[9] = dose: 240.0 mg/kg/injection, schedule: Q01DX005 (ip), vehicle: saline with Tween-80
[10] = dose: 50.0 mg/kg/injection, schedule: Q01DX005 (ip), vehicle: saline with Tween-80
[11] = dose: 100.0 mg/kg/injection, schedule: Q01DX005 (ip), vehicle: saline with Tween-80
[12] = dose: 25.0 mg/kg/injection, schedule: Q01DX009 (ip), vehicle: Klucel (hydroxypropylcellulose) (HPC)
[13] = dose: 50.0 mg/kg/injection, schedule: Q01DX005 (ip), vehicle: Klucel (hydroxypropylcellulose) (HPC)
[14] = dose: 100.0 mg/kg/injection, schedule: Q01DX005 (ip), vehicle: Klucel (hydroxypropylcellulose) (HPC)
[15] = dose: 200.0 mg/kg/injection, schedule: Q01DX005 (ip), vehicle: Klucel (hydroxypropylcellulose) (HPC)

## Cc1cc(NCCCNCCCNc2cc(C)nc3cc([N+](=O)[O-])ccc23)c2ccc([N+](=O)[O-])cc2n1
dose: 12.5 mg/kg/injection, schedule: Q01DX009 (ip), vehicle: other
  T/C: 150 % of control
dose: 25.0 mg/kg/injection, schedule: Q01DX009 (ip), vehicle: other
  T/C: 121 % of control

## O=C1NC(=O)C2CCCc3cccc1c32 (stereo unspecified)
[1]
  T/C: 100 % of control
[2]
  T/C: 97 % of control
dose: 200.0 mg/kg/injection, schedule: Q01DX009 (ip), vehicle: saline with Tween-80
  T/C: 110 % of control

## CCOC(=O)/N=[N+](\[O-])c1ccccc1
dose: 0.2 mg/kg/injection, schedule: Q01DX009 (ip), vehicle: saline with Tween-80
  T/C: 103 % of control
dose: 0.39 mg/kg/injection, schedule: Q01DX009 (ip), vehicle: saline with Tween-80
  T/C: 103 % of control
dose: 0.78 mg/kg/injection, schedule: Q01DX009 (ip), vehicle: saline with Tween-80
  T/C: 106 % of control and 95 % of control
dose: 1.56 mg/kg/injection, schedule: Q01DX009 (ip), vehicle: saline with Tween-80
  T/C: 109 % of control and 95 % of control
dose: 3.12 mg/kg/injection, schedule: Q01DX009 (ip), vehicle: saline with Tween-80
  T/C: 103 % of control and 123 % of control
dose: 3.12 mg/kg/injection, schedule: Q04DX003 (ip), vehicle: saline with Tween-80
  T/C: 112 % of control and 115 % of control
dose: 6.25 mg/kg/injection, schedule: Q01DX009 (ip), vehicle: saline with Tween-80
  T/C: 107 % of control and 115 % of control
dose: 6.25 mg/kg/injection, schedule: Q04DX003 (ip), vehicle: saline with Tween-80
  T/C: 99 % of control and 110 % of control
dose: 12.5 mg/kg/injection, schedule: Q01DX009 (ip), vehicle: saline with Tween-80
  T/C: 115 % of control
dose: 12.5 mg/kg/injection, schedule: Q04DX003 (ip), vehicle: saline with Tween-80
  T/C: 112 % of control and 117 % of control and 123 % of control
dose: 25.0 mg/kg/injection, schedule: Q04DX003 (ip), vehicle: saline with Tween-80
  T/C: 110 % of control

## CN(C)c1ccc(N=C2C=CC(=O)C=C2)cc1
dose: 1.5 mg/kg/injection, schedule: Q01DX009 (ip), vehicle: saline with Tween-80
  T/C: 101 % of control and 104 % of control and 106 % of control
dose: 3.0 mg/kg/injection, schedule: Q01DX009 (ip), vehicle: saline with Tween-80
  T/C: 105 % of control and 106 % of control (2×)
dose: 6.0 mg/kg/injection, schedule: Q01DX009 (ip), vehicle: saline with Tween-80
  T/C: 113 % of control (2×) and 120 % of control
dose: 12.0 mg/kg/injection, schedule: Q01DX009 (ip), vehicle: saline with Tween-80
  T/C: 100 % of control and 103 % of control
[3]
  T/C: 102 % of control

## COC1=CC(=O)C(C/C=C/c2ccccc2)=CC1=O
dose: 2.5 mg/kg/injection, schedule: Q01DX009 (ip), vehicle: saline with Tween-80
  T/C: 103 % of control
dose: 5.0 mg/kg/injection, schedule: Q01DX009 (ip), vehicle: saline with Tween-80
  T/C: 105 % of control
dose: 10.0 mg/kg/injection, schedule: Q01DX009 (ip), vehicle: saline with Tween-80
  T/C: 105 % of control

## C=CCOc1cc2c(cc1C/C=C/c1cc(OC)c(OC)c(OC)c1)OCO2
dose: 15.0 mg/kg/injection, schedule: Q01DX005 (ip), vehicle: saline with Tween-80
  T/C: 101 % of control
dose: 30.0 mg/kg/injection, schedule: Q01DX005 (ip), vehicle: saline with Tween-80
  T/C: 104 % of control
[4]
  T/C: 104 % of control and 89 % of control

## O=C1CC2(C(=O)N1CN1CCCCC1)c1ccccc1-c1ccccc12
[5]
  T/C: 104 % of control and 106 % of control
[6]
  T/C: 102 % of control and 115 % of control
[7]
  T/C: 156 % of control

## Cc1c(-c2ccccc2)nnn1-c1ccc(F)cc1F
[4]
  T/C: 101 % of control
[8]
  T/C: 99 % of control
[9]
  T/C: 92 % of control

## CSc1nc(NC2OC(COC(C)=O)C(OC(C)=O)C(OC(C)=O)C2OC(C)=O)c(C(=O)CCl)c(=O)n1C (stereo unspecified)
[10]
  T/C: 102 % of control
[11]
  T/C: 96 % of control
dose: 200.0 mg/kg/injection, schedule: Q01DX005 (ip), vehicle: saline with Tween-80
  T/C: 92 % of control

## CCN(CC)CCOCCOC1(C)CCC(C(C)C)CC1 (stereo unspecified)
dose: 50.0 mg/kg/injection, schedule: Q01DX005 (ip), vehicle: suspension in saline
  T/C: 108 % of control
dose: 100.0 mg/kg/injection, schedule: Q01DX005 (ip), vehicle: suspension in saline
  T/C: 106 % of control

## CC1=CP(=O)(c2ccccc2)CC1 (stereo unspecified) (tested in a mixture with another compound)
dose: 60.0 mg/kg/injection, schedule: Q01DX005 (ip), vehicle: saline
  T/C: 93 % of control
dose: 120.0 mg/kg/injection, schedule: Q01DX005 (ip), vehicle: saline
  T/C: 99 % of control
dose: 240.0 mg/kg/injection, schedule: Q01DX005 (ip), vehicle: saline
  T/C: 102 % of control

## O=[N+]([O-])C1C=Nc2ccccc2N=C1
[5]
  T/C: 105 % of control
[6]
  T/C: 97 % of control
[7]
  T/C: 97 % of control
dose: 400.0 mg/kg/injection, schedule: Q01DX009 (ip), vehicle: Klucel (hydroxypropylcellulose) (HPC)
  T/C: 96 % of control

## O=C(OCCCCI)c1ccccc1
dose: 25.0 mg/kg/injection, schedule: Q01DX009 (ip), vehicle: saline + Tween-80 + alcohol
  T/C: 105 % of control
dose: 50.0 mg/kg/injection, schedule: Q01DX009 (ip), vehicle: saline + Tween-80 + alcohol
  T/C: 103 % of control
dose: 100.0 mg/kg/injection, schedule: Q01DX009 (ip), vehicle: saline + Tween-80 + alcohol
  T/C: 104 % of control
dose: 2000.0 mg/kg/injection, schedule: Q01DX009 (ip), vehicle: saline + Tween-80 + alcohol
  T/C: 114 % of control

## CCSc1nc2ccc(N=Cc3ccccc3O)cc2s1
dose: 12.5 mg/kg/injection, schedule: Q01DX009 (ip), vehicle: Klucel (hydroxypropylcellulose) (HPC)
  T/C: 99 % of control and 88 % of control
[12]
  T/C: 101 % of control and 93 % of control
[6]
  T/C: 106 % of control and 218 % of control and 91 % of control

## CCN(CC)CCNc1cccc2c(C)cc(=O)[nH]c12
[10]
  T/C: 103 % of control
[11]
  T/C: 101 % of control

## Cc1ccccc1NC(=O)Oc1ccc(Cl)cc1C(=O)c1ccccc1
[4]
  T/C: 100 % of control
[8]
  T/C: 109 % of control
[9]
  T/C: 103 % of control

## COc1cc(C=Nc2cc(Cl)ccc2-n2ccnc2C)ccc1N(CCCl)CCCl
dose: 50.0 mg/kg/injection, schedule: Q04DX003 (ip), vehicle: saline with Tween-80
  T/C: 222 % of control
dose: 200.0 mg/kg/injection, schedule: Q04DX003 (ip), vehicle: saline with Tween-80
  T/C: 88 % of control

## O=C1NC(=O)C(Cc2ccc(N(CCO)CCO)cc2)(c2ccccc2)N1 (stereo unspecified)
[13]
  T/C: 108 % of control and 109 % of control and 116 % of control
[14]
  T/C: 111 % of control and 121 % of control
[15]
  T/C: 117 % of control and 120 % of control
dose: 400.0 mg/kg/injection, schedule: Q01DX005 (ip), vehicle: Klucel (hydroxypropylcellulose) (HPC)
  T/C: 110 % of control and 124 % of control

## NC(=S)N/N=C/c1ccnnc1
dose: 3.12 mg/kg/injection, schedule: Q04DX003 (ip), vehicle: saline
  T/C: 104 % of control and 97 % of control
dose: 6.25 mg/kg/injection, schedule: Q04DX003 (ip), vehicle: saline
  T/C: 100 % of control and 97 % of control
dose: 12.5 mg/kg/injection, schedule: Q04DX003 (ip), vehicle: saline
  T/C: 104 % of control and 108 % of control
dose: 25.0 mg/kg/injection, schedule: Q04DX003 (ip), vehicle: saline
  T/C: 98 % of control and 100 % of control
dose: 25.0 mg/kg/injection, schedule: Q04DX003 (ip), vehicle: suspension in saline
  T/C: 99 % of control
dose: 100.0 mg/kg/injection, schedule: Q04DX003 (ip), vehicle: saline
  T/C: 103 % of control
dose: 200.0 mg/kg/injection, schedule: Q04DX003 (ip), vehicle: saline
  T/C: 97 % of control
dose: 400.0 mg/kg/injection, schedule: Q04DX003 (ip), vehicle: saline
  T/C: 97 % of control

## COC(=O)C1=[N+]([O-])c2ccccc2C1C(O)C(=O)OC (stereo unspecified)
[4]
  T/C: 98 % of control
[8]
  T/C: 93 % of control
[9]
  T/C: 98 % of control

## CC(CN1CCCCC1)C(=O)c1ccc(-c2ccccc2)cc1 (stereo unspecified)
[3]
  T/C: 100 % of control
[1]
  T/C: 105 % of control
[2]
  T/C: 100 % of control

## CC(N1CCOCC1)C(O)(c1ccccc1)c1ccccn1 (stereo unspecified)
dose: 50.0 mg/kg/injection, schedule: Q01DX005 (ip), vehicle: saline + alcohol
  T/C: 103 % of control
dose: 100.0 mg/kg/injection, schedule: Q01DX005 (ip), vehicle: saline + alcohol
  T/C: 115 % of control

## CC(SCCCCCCSC(C)C(=O)O)C(=O)O (stereo unspecified)
[13]
  T/C: 110 % of control
[14]
  T/C: 97 % of control
[15]
  T/C: 95 % of control

## O=c1nc(-c2ccco2)sc(=O)[nH]1
[12]
  T/C: 109 % of control
[5]
  T/C: 106 % of control and 117 % of control
[6]
  T/C: 113 % of control
[7]
  T/C: 105 % of control and 121 % of control

Reference: PubChem BioAssay AID330 (DTP/NCI, 2004)
